Results as given in patent US6087334A, “Anti-diabetic peptides” (Amylin Pharmaceuticals, Inc., priority 1998, dated 2000).
Where a SMILES comes first, the peptide text is derived from it. Bridges are numbered along the chain shown (N, C = ends).

Columns and labels:
[1] = target: T1, C1a receptor (C1a-type calcitonin receptor) (Rattus norvegicus, UniProt P32214); test: C1a/293 competitive binding, displacement of [125I]-human calcitonin (Example C); settings: HEK293 plasma membranes (C1a/293), [125I]-human calcitonin 20 pM
T1 construct: expressed in transfected cells
T1 sequence (P32214 25-479 isoform P32214-2 limits assumed): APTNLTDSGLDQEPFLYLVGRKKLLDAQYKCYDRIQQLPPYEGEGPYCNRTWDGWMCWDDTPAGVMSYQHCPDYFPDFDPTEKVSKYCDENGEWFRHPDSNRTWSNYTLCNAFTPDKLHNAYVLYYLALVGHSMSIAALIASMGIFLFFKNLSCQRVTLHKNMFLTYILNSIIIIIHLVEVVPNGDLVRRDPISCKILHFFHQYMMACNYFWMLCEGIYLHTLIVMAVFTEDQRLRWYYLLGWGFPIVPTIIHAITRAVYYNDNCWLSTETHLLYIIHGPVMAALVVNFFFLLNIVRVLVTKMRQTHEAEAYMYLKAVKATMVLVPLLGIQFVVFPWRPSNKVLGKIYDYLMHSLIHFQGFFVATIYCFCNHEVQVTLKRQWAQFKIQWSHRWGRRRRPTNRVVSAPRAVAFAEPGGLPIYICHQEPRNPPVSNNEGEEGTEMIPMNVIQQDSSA
Method: Peptide compounds of the present invention may be evaluated for binding to the C1a receptor using the procedures described in Example C. The C1a receptor is the predominant mammalian calcitonin receptor subtype. C1a pcDNA construction and transfection were carried out as previously described (Albrandt et al. 1993, FEBS Letters, 325:225-232). HEK293 cell lines showing stable expression of the rat C1a-type calcitonin receptor (C1a/293) or the human C1a-type calcitonin receptor (1154/293) were selected by G418 resistance and limiting dilution culture methods. Plasma membranes were collected from homogenized HEK293 cells and used in the receptor binding assay. Individual test peptides at concentrations spanning 6 log units starting at around 10^-6 M were examined for their ability to displace [^125 I]-human calcitonin from the plasma membrane preparation using a 96-well microtiter plate format and scintillation counting with a Wallac LKB Beta plate counter. Competitive binding curves were constructed. Non-specific binding was measured in the presence of 100 nM calcitonin. Peptide potencies (IC50 's for competitive binding) were calculated by non-linear regression using Prism™ (version 2.01, GraphPAD Software, San Diego, Calif.).
C1a/293 Competitive Binding Studies:
Compounds were evaluated for competition in binding to the C1a receptor as follows:
(§1) Reference peptides used in these studies were purchased from Bachem (Torrance, Calif.). All other chemicals were of the highest commercial grade. [^35 S]-GTPγS was purchased from NEN Life Science Products, Inc., Pittsburgh, Pa. [^125 I]-human calcitonin was purchased from Amersham Pharmacia Biotech, Inc., Piscataway, N.J.
(§2) Methods for C1a pcDNA construction and transfection have been previously described (Albrandt, et al. 1993). HEK293 cell lines stably expressing the rat C1a-type calcitonin receptor (C1a/293) or the human C1a-type calcitonin receptor (1154/293) were selected by G418 resistance and limiting dilution culture methods.
(§3) Confluent cells were detached from tissue culture flasks by incubation with 5 mM EDTA in PBS. Cells were homogenized in ice-cold 20 mM HEPES, pH 7.4 with a Polytron homogenizer. Plasma membranes were collected using three cycles of washing in fresh buffer followed by centrifugation for 15 minutes at 48,000×g. The final membrane pellet was resuspended in 20 mM HEPES buffer containing 0.2 mM phenylmethylsulfonyl fluoride (PMSF) and stored at -70° C.
Assay buffer contained 5 μg/mL bestatin, 1 μg/mL phosphoramidon, 1 mg/mL bovine serum albumin (fraction V), 1 mg/mL bacitracin, 1 mM MgCl2, and 20 mM HEPES, pH 7.4. Membranes (2-5 μg membrane protein/well), [^125 I]-human calcitonin (20 pM), and peptides were combined in 200 μL buffer in 96-well microtiter plates. After a 60 minute incubation at room temperature, well contents were harvested onto polyethyleneimine-treated GF/B glass fiber pads using a Tomtec Mach II plate harvestor (Hamden, Conn.). Dried pads were combined with scintillant and counted on a Wallac LKB Beta Plate scintillation counter (Gaithersburg, Md.). For competitive binding curves, samples were run in duplicate over a 6 log concentration range starting at 10^-6 or 10^-7 M. Non-specific binding was measured in the presence of 100 nM human calcitonin.

[2] = target: T1, C1a receptor (C1a-type calcitonin receptor); test: biochemical; settings: HEK293 plasma membranes, [35S]-GTPγS 200 pM; read-out: ED50 (nM) Example B (C1a GTPγS)
From the text: Peptide compounds of the present invention may be evaluated for agonist activity using the procedures described in Example B. The plasma membrane preparation of a 7-transmembrane-G-protein coupled receptor (GPCR) contains not only the receptor but also the G-proteins which constitute the first step in the intracellular signal transduction process when the receptor is activated by an agonist ligand. […] Agonist activation of a GPCR is accompanied by displacement of GDP by GTP from this site. Thus, measurement of the binding of a radiolabelled ligand, namely [^35 S]-GTPγS, for this binding site constitutes a measure of agonist potency for a given ligand. For agonism at the C1a receptor, a similar membrane preparation to that described below for the C1a binding studies is used. C1a pcDNA construction and transfection were carried out as previously described (Albrandt et al. 1993, FEBS Letters, 325:225-232). HEK293 cell lines showing stable expression of the rat C1a-type calcitonin receptor (C1a/293) or the human C1a-type calcitonin receptor (1154/293) were selected by G418 resistance and limiting dilution culture methods. Plasma membranes were collected from homogenized HEK293 cells and used in the [^35 S]-GTPγS assay. Individual test peptides at concentrations spanning 6 log units starting at around […] were examined for their ability to bind [^35 S]-GTPγS. Maximum agonist-specific binding was measured in the presence of 1 μM human calcitonin, constitutive binding was measured in the presence of buffer alone. Peptide potencies (EC50 's for concentration response curves) were calculated by non-linear regression using Prism™ (version 2.01, GraphPAD Software, San Diego, Calif.).
[^35 S]-GTPγS C1a Agonist Studies
Evaluation of the agonist activity of compounds versus the C1a receptor was carried out as follows:
as §1
as §2, with “1993, FEBS Letters, 325:225-232).” for “1993).”
as §3
Assay buffer contained 1 μM GDP, 1 mM EDTA, 5 mM MgCl2, 20 mM Hepes, and 150 mM NaCl, pH 7.4. Membranes (7.5 μg membrane protein/well), [^35 S]-GTPγS (200 pM), and peptides were combined in 200 μL buffer in 96-well microtiter plates. After a 75 minute incubation at room temperature, well contents were harvested onto GF/B glass fiber pads using a Tomtec Mach II plate harvestor (Hamden, Conn.). Dried pads were combined with scintillant and counted on a Wallac LKB Beta Plate scintillation counter. For concentration response curves, samples were run in duplicate over a 6 log concentration range starting at 10^-6 M or 10^-7 M. Maximum agonist-specific binding was measured in the presence of 1 μM human calcitonin, constitutive binding was measured in the presence of buffer alone.
Peptide potencies (1C50 's for competitive binding, and EC50 's for concentration response curves) were calculated by non-linear regression using Prism (version 2.01, GraphPAD Software, San Diego, Calif.).

Row | SMILES | IC50 [1] | EC50 [2]
1 | CC(C)C[C@H](NC(=O)[C@H](CCCNC(=N)N)NC(=O)[C@H](CCC(N)=O)NC(=O)[C@@H](NC(=O)[C@H](C)NC(=O)[C@@H]1CSSC[C@H](NC(=O)[C@@H](N)CCCCN)C(=O)N[C@@H](CC(N)=O)C(=O)N[C@@H]([C@@H](C)O)C(=O)N[C@@H](C)C(=O)N[C@@H]([C@@H](C)O)C(=O)N1)[C@@H](C)O)C(=O)N[C@@H](C)C(=O)N[C@@H](CC(N)=O)C(=O)N[C@@H](Cc1ccccc1)C(=O)N[C@@H](CC(C)C)C(=O)N[C@H](C(=O)N[C@@H](C)C(=O)N[C@@H](CO)C(=O)N[C@@H](CO)C(=O)NCC(=O)N[C@@H](Cc1ccc(O)cc1)C(N)=O)C(C)C [Example 12] (H-KCNTATCATQRLANFLVASSGY-NH2; disulfide 2-7) | 10 nM | 8 nM
2 | CC(C)C[C@H](NC(=O)[C@H](CCCNC(=N)N)NC(=O)[C@H](CCC(N)=O)NC(=O)[C@@H](NC(=O)[C@H](C)NC(=O)[C@@H]1CSSC[C@H](N)C(=O)N[C@@H](CC(N)=O)C(=O)N[C@@H]([C@@H](C)O)C(=O)N[C@@H](C)C(=O)N[C@@H]([C@@H](C)O)C(=O)N1)[C@@H](C)O)C(=O)N[C@@H](C)C(=O)N[C@@H](CC(N)=O)C(=O)N[C@@H](Cc1ccccc1)C(=O)N[C@@H](CC(C)C)C(=O)N[C@H](C(=O)N[C@@H](CCCNC(=N)N)C(=O)N[C@@H](CO)C(=O)N[C@@H](CO)C(=O)NCC(=O)N[C@@H](Cc1ccc(O)cc1)C(N)=O)C(C)C [Example 13] (H-CNTATCATQRLANFLVRSSGY-NH2; disulfide 1-6) | 12 nM | 19 nM
3 | CC(C)C[C@H](NC(=O)[C@H](CCCNC(=N)N)NC(=O)[C@H](CCC(N)=O)NC(=O)[C@@H](NC(=O)[C@H](C)NC(=O)[C@@H]1CSSC[C@H](NC(=O)[C@@H](N)CCCCN)C(=O)N[C@@H](CC(N)=O)C(=O)N[C@@H]([C@@H](C)O)C(=O)N[C@@H](C)C(=O)N[C@@H]([C@@H](C)O)C(=O)N1)[C@@H](C)O)C(=O)N[C@@H](C)C(=O)N[C@@H](CC(N)=O)C(=O)N[C@@H](Cc1ccccc1)C(=O)N[C@@H](CC(C)C)C(=O)N[C@H](C(=O)N[C@@H](CCCNC(=N)N)C(=O)N[C@@H](CO)C(=O)N[C@@H](CO)C(=O)NCC(=O)N[C@@H](Cc1ccc(O)cc1)C(N)=O)C(C)C [Example 14] (H-KCNTATCATQRLANFLVRSSGY-NH2; disulfide 2-7) | 18 nM | 90 nM
4 | CC(C)C[C@H](NC(=O)[C@H](CCCNC(=N)N)NC(=O)[C@H](CCC(N)=O)NC(=O)[C@@H](NC(=O)[C@H](C)NC(=O)[C@@H]1CSSC[C@H](NC(=O)[C@@H](N)CCCCN)C(=O)N[C@@H](CC(N)=O)C(=O)N[C@@H]([C@@H](C)O)C(=O)N[C@@H](C)C(=O)N[C@@H]([C@@H](C)O)C(=O)N1)[C@@H](C)O)C(=O)N[C@@H](C)C(=O)N[C@@H](CC(N)=O)C(=O)N[C@@H](Cc1ccccc1)C(=O)N[C@@H](CC(C)C)C(=O)N[C@H](C(=O)N[C@@H](CCCNC(=N)N)C(=O)N[C@@H](CO)C(=O)N[C@@H](C)C(=O)NCC(=O)N[C@@H](Cc1ccc(O)cc1)C(N)=O)C(C)C [Example 15] (H-KCNTATCATQRLANFLVRSAGY-NH2; disulfide 2-7) | 18 nM | 21 nM
5 | CC(C)C[C@H](NC(=O)[C@H](Cc1ccccc1)NC(=O)[C@H](CC(N)=O)NC(=O)[C@H](C)NC(=O)[C@H](CC(C)C)NC(=O)[C@H](CCCNC(=N)N)NC(=O)[C@H](CCC(N)=O)NC(=O)[C@@H](NC(=O)[C@H](C)NC(=O)[C@@H]1CSSC[C@H](NC(=O)[C@@H](N)CCCCN)C(=O)N[C@@H](CC(N)=O)C(=O)N[C@@H]([C@@H](C)O)C(=O)N[C@@H](C)C(=O)N[C@@H]([C@@H](C)O)C(=O)N1)[C@@H](C)O)C(=O)N[C@@H](C)C(=O)N[C@@H](CCCNC(=N)N)C(=O)N[C@@H](CO)C(=O)N[C@@H](CO)C(=O)NCC(=O)N[C@@H](Cc1ccc(O)cc1)C(N)=O [Example 16] (H-KCNTATCATQRLANFLARSSGY-NH2; disulfide 2-7) | 20 nM | 1.4 nM
